Reference: article PMC4447944 (The Journal of Biological Chemistry, 2015)

Tests used:
hCSNK1G1 = molecular target: T1, hCSNK1G1 (Homo sapiens, UniProt Q9HCP0); assay: KINOMEscan; format: binding
T1 construct: purchased DiscoverX (KINOMEscan platform)

hCAMK1 = molecular target: T2, hCAMK1 (Homo sapiens, UniProt Q14012); assay: KINOMEscan; format: binding
T2 construct: purchased DiscoverX

hTNK2 = molecular target: T3, hTNK2 (Homo sapiens, UniProt Q07912); assay: KINOMEscan; format: binding
T3 construct: purchased DiscoverX

hJAK3(JH1Dom.-catalytic) = molecular target: T4, hJAK3(JH1Dom.-catalytic) (Homo sapiens, UniProt P52333); assay: KINOMEscan; format: binding
T4 construct: hJAK3(JH1Dom.-catalytic); purchased DiscoverX (KINOMEscan panel)

hVEGFR2 = molecular target: T5, hVEGFR2 (Homo sapiens, UniProt P35968); assay: KINOMEscan; format: binding
T5 construct: purchased DiscoverX

hITK = molecular target: T6, hITK (Homo sapiens, UniProt Q08881); assay: KINOMEscan; format: binding
T6 construct: purchased DiscoverX (KINOMEscan panel)

hSTK36 = molecular target: T7, hSTK36 (Homo sapiens, UniProt Q9NRP7); assay: KINOMEscan; format: binding
T7 construct: purchased DiscoverX (KINOMEscan platform)

hSIK2 = molecular target: T8, hSIK2 (Homo sapiens, UniProt Q9H0K1); assay: KINOMEscan; format: binding
T8 construct: purchased DiscoverX (KINOMEscan platform)

hCTK = molecular target: T9, hCTK (Homo sapiens, UniProt P42679); assay: KINOMEscan; format: binding
T9 construct: purchased DiscoverX (KINOMEscan platform)

hFLT3-autoinhibited = molecular target: T10, hFLT3-autoinhibited (Homo sapiens, UniProt P36888); assay: KINOMEscan; format: binding
T10 construct: purchased DiscoverX

hKIT-autoinhibited = molecular target: T11, hKIT-autoinhibited (Homo sapiens, UniProt P10721); assay: KINOMEscan; format: binding
T11 construct: purchased DiscoverX (KINOMEscan platform)

hTRPM6 = molecular target: T12, hTRPM6 (Homo sapiens, UniProt Q9BX84); assay: KINOMEscan; format: binding
T12 construct: purchased DiscoverX

hINSRR = molecular target: T13, hINSRR (Homo sapiens, UniProt P14616); assay: KINOMEscan; format: binding
T13 construct: purchased DiscoverX (KINOMEscan panel)

hACVR1B = molecular target: T14, hACVR1B (Homo sapiens, UniProt P36896); assay: KINOMEscan; format: binding
T14 construct: purchased DiscoverX (KINOMEscan platform)

hBRSK2 = molecular target: T15, hBRSK2 (Homo sapiens, UniProt Q8IWQ3); assay: KINOMEscan; format: binding
T15 construct: purchased DiscoverX

hSGK = molecular target: T16, hSGK (Homo sapiens, UniProt O00141); assay: KINOMEscan; format: binding
T16 construct: purchased DiscoverX (KINOMEscan platform)

[1] = molecular target: T17, hEGFR(L747-S752del, P753S) (Homo sapiens, UniProt P00533, DEL747-752/P753S); assay: KINOMEscan; format: binding
T17 construct: purchased DiscoverX

hEPHA5 = molecular target: T18, hEPHA5 (Homo sapiens, UniProt P54756); assay: KINOMEscan; format: binding
T18 construct: purchased DiscoverX

hCHEK2 = molecular target: T19, hCHEK2 (Homo sapiens, UniProt O96017); assay: KINOMEscan; format: binding
T19 construct: purchased DiscoverX

hTAK1 = molecular target: T20, hTAK1 (Homo sapiens, UniProt O43318); assay: KINOMEscan; format: binding
T20 construct: purchased DiscoverX

hHIPK1 = molecular target: T21, hHIPK1 (Homo sapiens, UniProt Q86Z02); assay: KINOMEscan; format: binding
T21 construct: purchased DiscoverX

hCAMK2A = molecular target: T22, hCAMK2A (Homo sapiens, UniProt Q9UQM7); assay: KINOMEscan; format: binding
T22 construct: purchased DiscoverX

hJNK3 = molecular target: T23, hJNK3 (Homo sapiens, UniProt P53779); assay: KINOMEscan; format: binding
T23 construct: purchased DiscoverX (KINOMEscan panel)

hJAK1(JH1Dom.-catalytic) = molecular target: T24, hJAK1(JH1Dom.-catalytic) (Homo sapiens, UniProt P23458); assay: KINOMEscan; format: binding
T24 construct: hJAK1(JH1Dom.-catalytic); purchased DiscoverX (KINOMEscan panel)

hYSK4 = molecular target: T25, hYSK4 (Homo sapiens, UniProt Q56UN5); assay: KINOMEscan; format: binding
T25 construct: purchased DiscoverX

hRXRα = molecular target: T26, hRXRα (Homo sapiens, UniProt P19793); assay: Nuclear hormone receptor assay (Eurofins-CEREP); conditions: read-out: Relative IC50
T26 construct: Eurofins-CEREP

hAURKB = molecular target: T27, hAURKB (Homo sapiens, UniProt Q96GD4); assay: KINOMEscan; format: binding
T27 construct: purchased DiscoverX

hADCK3 = molecular target: T28, hADCK3 (Homo sapiens, UniProt Q8NI60); assay: KINOMEscan; format: binding
T28 construct: purchased DiscoverX

hCDKL5 = molecular target: T29, hCDKL5 (Homo sapiens, UniProt O76039); assay: KINOMEscan; format: binding
T29 construct: purchased DiscoverX

[2] = molecular target: T30, hRPS6KA4(Kin.Dom.2-C-term) (Homo sapiens, UniProt O75676); assay: KINOMEscan; format: binding
T30 construct: hRPS6KA4(Kin.Dom.2-C-term); purchased DiscoverX (KINOMEscan platform)

hDCAMKL2 = molecular target: T31, hDCAMKL2 (Homo sapiens, UniProt Q8N568); assay: KINOMEscan; format: binding
T31 construct: purchased DiscoverX (KINOMEscan platform)

hLKB1 = molecular target: T32, hLKB1 (Homo sapiens, UniProt Q15831); assay: KINOMEscan; format: binding
T32 construct: purchased DiscoverX (KINOMEscan platform)

hEPHA1 = molecular target: T33, hEPHA1 (Homo sapiens, UniProt P21709); assay: KINOMEscan; format: binding
T33 construct: purchased DiscoverX

hYANK3 = molecular target: T34, hYANK3 (Homo sapiens, UniProt Q86UX6); assay: KINOMEscan; format: binding
T34 construct: purchased DiscoverX

hEGFR(L858R) = molecular target: T35, hEGFR(L858R) (Homo sapiens, UniProt P00533, L858R); assay: KINOMEscan; format: binding
T35 construct: purchased DiscoverX

hKIT(V559D) = molecular target: T36, hKIT(V559D) (Homo sapiens, UniProt P10721, V559D); assay: KINOMEscan; format: binding
T36 construct: purchased DiscoverX (KINOMEscan platform)

hKIT(V559D,T670I) = molecular target: T37, hKIT(V559D,T670I) (Homo sapiens, UniProt P10721, T670I/V559D); assay: KINOMEscan; format: binding
T37 construct: purchased DiscoverX (KINOMEscan platform)

hD1 = hD1 (Homo sapiens, UniProt P21728); assay: cAMP Agonist (Eurofins-CEREP); conditions: @ 10 μM
hFAK = molecular target: T38, hFAK (Homo sapiens, UniProt Q05397); assay: KINOMEscan; format: binding
T38 construct: purchased DiscoverX

hSTK35 = molecular target: T39, hSTK35 (Homo sapiens, UniProt Q8TDR2); assay: KINOMEscan; format: binding
T39 construct: purchased DiscoverX (KINOMEscan platform)

T18 sequence (P54756 25-1037): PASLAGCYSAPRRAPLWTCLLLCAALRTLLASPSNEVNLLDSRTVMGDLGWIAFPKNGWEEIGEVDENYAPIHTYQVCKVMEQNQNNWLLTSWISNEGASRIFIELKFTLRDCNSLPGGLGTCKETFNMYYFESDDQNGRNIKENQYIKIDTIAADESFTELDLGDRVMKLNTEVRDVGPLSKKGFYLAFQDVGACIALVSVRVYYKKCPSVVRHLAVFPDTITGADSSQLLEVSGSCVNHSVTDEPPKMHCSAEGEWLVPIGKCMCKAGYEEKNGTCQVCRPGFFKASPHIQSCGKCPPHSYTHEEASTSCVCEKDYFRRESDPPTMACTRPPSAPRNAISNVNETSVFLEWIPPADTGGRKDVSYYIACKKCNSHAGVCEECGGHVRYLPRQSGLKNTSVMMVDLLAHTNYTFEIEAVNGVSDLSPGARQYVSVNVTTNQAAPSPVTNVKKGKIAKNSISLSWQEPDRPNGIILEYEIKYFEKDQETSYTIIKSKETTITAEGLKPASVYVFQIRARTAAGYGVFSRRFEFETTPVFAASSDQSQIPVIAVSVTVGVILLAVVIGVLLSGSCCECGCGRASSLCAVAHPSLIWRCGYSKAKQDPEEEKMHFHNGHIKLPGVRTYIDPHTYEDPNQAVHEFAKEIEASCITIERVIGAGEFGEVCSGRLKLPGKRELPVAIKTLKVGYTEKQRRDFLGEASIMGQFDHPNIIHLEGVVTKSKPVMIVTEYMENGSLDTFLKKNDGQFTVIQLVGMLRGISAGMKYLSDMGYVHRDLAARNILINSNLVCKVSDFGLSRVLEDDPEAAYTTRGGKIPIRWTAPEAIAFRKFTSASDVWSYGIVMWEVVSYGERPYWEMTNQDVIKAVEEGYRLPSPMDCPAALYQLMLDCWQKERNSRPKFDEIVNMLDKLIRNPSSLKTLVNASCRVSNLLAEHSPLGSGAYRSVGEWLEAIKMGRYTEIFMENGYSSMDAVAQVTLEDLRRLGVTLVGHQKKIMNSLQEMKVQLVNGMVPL
T37 sequence (P10721 26-976 V559D/T670I): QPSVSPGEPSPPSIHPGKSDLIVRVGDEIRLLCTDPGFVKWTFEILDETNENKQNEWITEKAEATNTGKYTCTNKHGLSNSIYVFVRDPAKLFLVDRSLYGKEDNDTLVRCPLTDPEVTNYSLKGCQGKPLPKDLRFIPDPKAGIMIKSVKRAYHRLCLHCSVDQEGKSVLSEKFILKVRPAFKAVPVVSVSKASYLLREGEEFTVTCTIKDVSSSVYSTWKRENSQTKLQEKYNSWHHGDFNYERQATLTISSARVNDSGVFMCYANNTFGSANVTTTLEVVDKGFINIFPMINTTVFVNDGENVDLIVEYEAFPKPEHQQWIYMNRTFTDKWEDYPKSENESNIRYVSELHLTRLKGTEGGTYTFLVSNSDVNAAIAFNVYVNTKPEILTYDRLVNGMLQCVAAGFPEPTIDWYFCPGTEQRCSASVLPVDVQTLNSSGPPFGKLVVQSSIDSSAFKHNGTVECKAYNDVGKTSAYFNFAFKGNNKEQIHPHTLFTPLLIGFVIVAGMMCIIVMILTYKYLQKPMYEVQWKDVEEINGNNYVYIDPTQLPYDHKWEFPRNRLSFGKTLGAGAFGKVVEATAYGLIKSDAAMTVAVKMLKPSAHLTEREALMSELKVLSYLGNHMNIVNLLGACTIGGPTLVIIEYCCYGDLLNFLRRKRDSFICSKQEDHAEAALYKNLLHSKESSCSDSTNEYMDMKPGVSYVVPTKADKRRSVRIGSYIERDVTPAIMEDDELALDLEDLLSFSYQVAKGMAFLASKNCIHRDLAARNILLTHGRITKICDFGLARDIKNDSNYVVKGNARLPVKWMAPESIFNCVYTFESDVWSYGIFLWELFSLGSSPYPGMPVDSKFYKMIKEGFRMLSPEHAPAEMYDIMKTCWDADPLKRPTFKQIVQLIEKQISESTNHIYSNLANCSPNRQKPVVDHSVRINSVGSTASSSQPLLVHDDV
T12 sequence (Q9BX84 whole entry): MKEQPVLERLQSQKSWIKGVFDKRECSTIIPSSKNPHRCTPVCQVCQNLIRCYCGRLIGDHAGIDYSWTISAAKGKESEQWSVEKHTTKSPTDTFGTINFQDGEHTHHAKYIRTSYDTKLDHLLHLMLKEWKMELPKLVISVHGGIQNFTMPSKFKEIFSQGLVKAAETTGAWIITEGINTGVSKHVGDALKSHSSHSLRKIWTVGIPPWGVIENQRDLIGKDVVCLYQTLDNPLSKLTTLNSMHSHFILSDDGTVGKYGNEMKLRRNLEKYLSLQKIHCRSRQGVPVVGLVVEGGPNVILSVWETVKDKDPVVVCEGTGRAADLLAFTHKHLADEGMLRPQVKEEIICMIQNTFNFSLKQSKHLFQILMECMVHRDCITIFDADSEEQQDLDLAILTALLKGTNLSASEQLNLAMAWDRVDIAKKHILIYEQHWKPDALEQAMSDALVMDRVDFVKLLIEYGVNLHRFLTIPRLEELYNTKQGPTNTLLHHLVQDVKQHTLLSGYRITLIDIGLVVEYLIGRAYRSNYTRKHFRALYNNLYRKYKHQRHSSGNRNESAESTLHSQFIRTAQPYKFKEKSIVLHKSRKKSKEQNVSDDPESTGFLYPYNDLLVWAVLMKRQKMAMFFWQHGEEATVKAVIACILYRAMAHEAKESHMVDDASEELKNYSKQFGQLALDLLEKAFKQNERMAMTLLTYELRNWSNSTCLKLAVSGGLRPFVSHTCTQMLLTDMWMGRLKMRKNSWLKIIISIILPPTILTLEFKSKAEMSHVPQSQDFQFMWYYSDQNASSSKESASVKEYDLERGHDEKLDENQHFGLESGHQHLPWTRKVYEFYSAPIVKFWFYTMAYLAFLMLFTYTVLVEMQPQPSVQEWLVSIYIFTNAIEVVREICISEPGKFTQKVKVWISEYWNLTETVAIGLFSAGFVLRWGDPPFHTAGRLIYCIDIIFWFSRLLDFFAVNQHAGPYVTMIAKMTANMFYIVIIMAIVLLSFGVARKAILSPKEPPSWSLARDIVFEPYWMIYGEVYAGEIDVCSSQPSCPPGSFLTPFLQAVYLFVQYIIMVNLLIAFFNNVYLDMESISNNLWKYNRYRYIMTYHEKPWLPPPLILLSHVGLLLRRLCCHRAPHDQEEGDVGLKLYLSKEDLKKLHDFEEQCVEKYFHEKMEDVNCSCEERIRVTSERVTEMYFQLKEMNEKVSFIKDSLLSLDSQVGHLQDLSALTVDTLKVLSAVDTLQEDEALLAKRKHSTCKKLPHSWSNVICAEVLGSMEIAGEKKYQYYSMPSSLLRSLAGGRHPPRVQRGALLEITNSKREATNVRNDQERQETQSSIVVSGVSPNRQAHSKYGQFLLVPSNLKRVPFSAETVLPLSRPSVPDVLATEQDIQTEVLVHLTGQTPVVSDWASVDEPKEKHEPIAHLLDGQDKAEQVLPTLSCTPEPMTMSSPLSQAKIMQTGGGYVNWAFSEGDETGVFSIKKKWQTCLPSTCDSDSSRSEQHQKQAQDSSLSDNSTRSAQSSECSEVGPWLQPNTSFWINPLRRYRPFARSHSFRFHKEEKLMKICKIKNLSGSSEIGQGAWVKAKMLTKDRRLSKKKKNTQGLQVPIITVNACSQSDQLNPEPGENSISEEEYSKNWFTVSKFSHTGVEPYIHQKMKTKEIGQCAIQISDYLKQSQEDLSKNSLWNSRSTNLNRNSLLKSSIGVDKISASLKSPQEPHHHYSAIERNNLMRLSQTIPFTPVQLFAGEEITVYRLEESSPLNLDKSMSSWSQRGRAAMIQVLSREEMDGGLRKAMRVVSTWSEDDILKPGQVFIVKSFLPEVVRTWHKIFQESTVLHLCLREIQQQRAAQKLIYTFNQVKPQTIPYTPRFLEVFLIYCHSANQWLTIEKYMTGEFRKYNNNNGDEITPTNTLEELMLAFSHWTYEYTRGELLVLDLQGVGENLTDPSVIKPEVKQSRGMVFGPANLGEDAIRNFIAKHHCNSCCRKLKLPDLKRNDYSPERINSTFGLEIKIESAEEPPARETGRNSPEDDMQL
T34 sequence (Q86UX6 whole entry): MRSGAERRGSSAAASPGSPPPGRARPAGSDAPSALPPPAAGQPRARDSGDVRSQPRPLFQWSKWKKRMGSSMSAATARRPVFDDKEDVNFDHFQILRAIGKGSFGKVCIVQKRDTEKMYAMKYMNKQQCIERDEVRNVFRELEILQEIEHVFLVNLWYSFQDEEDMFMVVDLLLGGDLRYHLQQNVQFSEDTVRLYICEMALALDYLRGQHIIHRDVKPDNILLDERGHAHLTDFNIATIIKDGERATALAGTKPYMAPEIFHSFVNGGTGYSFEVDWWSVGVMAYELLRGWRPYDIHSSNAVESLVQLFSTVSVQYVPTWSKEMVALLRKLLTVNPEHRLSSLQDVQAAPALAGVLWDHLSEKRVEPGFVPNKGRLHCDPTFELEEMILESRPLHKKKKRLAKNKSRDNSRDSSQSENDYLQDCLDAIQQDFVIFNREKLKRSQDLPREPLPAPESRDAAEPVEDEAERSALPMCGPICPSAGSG
T16 sequence (O00141 whole entry): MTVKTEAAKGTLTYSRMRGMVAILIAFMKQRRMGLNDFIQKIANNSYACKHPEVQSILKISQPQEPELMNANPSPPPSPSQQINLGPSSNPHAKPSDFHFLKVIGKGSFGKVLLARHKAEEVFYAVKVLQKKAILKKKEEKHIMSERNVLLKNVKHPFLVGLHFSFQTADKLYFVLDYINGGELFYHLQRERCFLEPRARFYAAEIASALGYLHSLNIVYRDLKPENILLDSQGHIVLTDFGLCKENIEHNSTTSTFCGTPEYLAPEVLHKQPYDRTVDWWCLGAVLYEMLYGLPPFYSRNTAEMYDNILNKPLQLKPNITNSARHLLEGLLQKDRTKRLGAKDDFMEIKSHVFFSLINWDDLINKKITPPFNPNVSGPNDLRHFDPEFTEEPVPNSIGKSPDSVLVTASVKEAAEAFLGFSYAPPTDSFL
T36 sequence (P10721 26-976 V559D): as the sequence (P10721 26-976 V559D/T670I) above, with I645T counted along it

Cc1cn(CCN2CCN(c3ccccc3-c3cc(C#N)cc(C(=O)NCCCN4CCCC4)c3)CC2)c2ccccc12 [LLY-507, 3-cyano-5-{2-[4-[2-(3-methylindol-1-yl)ethyl]piperazin-1-yl]-phenyl}-N-[(3-pyrrolidin-1-yl)propyl]benzamide]
IC50 (hCSNK1G1): > 20 µM | IC50 (hCAMK1): > 20 µM | IC50 (hTNK2): > 20 µM | IC50 (hJAK3(JH1Dom.-catalytic)): > 20 µM | IC50 (hVEGFR2): > 20 µM | IC50 (hITK): > 20 µM | IC50 (hSTK36): > 20 µM | IC50 (hSIK2): > 20 µM | IC50 (hCTK): > 20 µM | IC50 (hFLT3-autoinhibited): > 20 µM | IC50 (hKIT-autoinhibited): > 20 µM | IC50 (hTRPM6): > 20 µM | IC50 (hINSRR): > 20 µM | IC50 (hACVR1B): > 20 µM | IC50 (hBRSK2): > 20 µM | IC50 (hSGK): > 20 µM | IC50 [1]: > 20 µM | IC50 (hEPHA5): > 20 µM | IC50 (hCHEK2): > 20 µM | IC50 (hTAK1): > 20 µM | IC50 (hHIPK1): > 20 µM | IC50 (hCAMK2A): > 20 µM | IC50 (hJNK3): > 20 µM | IC50 (hJAK1(JH1Dom.-catalytic)): > 20 µM | IC50 (hYSK4): > 20 µM | IC50 (hRXRα): > 10 µM | IC50 (hAURKB): > 20 µM | IC50 (hADCK3): > 20 µM | IC50 (hCDKL5): > 20 µM | IC50 [2]: > 20 µM | IC50 (hDCAMKL2): > 20 µM | IC50 (hLKB1): > 20 µM | IC50 (hEPHA1): > 20 µM | IC50 (hYANK3): > 20 µM | IC50 (hEGFR(L858R)): > 20 µM | IC50 (hKIT(V559D)): > 20 µM | IC50 (hKIT(V559D,T670I)): > 20 µM | % Effect, Stimulation (hD1): -6.8% | IC50 (hFAK): > 20 µM | IC50 (hSTK35): > 20 µM
